Results as given in US20230321055A1, “PREVENTIVE TREATMENT OF MIGRAINE” (priority 2022, published 2023).

System: participants with chronic migraine
Test: Same phase 3 study: safety and tolerability (adverse events, hepatic laboratory values), safety population
Format: in vivo, human
Experimental: A phase 3, multicenter, randomized, double-blind, placebo-controlled, parallel-group study was carried out to evaluate the efficacy, safety, and tolerability of atogepant for the prevention of chronic migraine. A total of 778 participants from 133 sites in North America, Europe, and East Asia were randomized to one of three treatment arms (placebo, Atogepant 30 mg BID, and Atogepant 60 mg QD) in a 1:1:1 ratio.
This study comprised a 4-week screening and baseline period, a 12-week double blind treatment period, and a follow-up period of 4 additional weeks. The total study duration was 20 weeks. Participant disposition information and other relevant participant screening information may also be found in FIG. 19.
The overall safety profile of the study was consistent with safety findings observed in previous studies of atogepant in an episodic migraine population. […] For the safety population, the mean treatment duration for atogepant 30 mg BID, atogepant 60 mg QD, and placebo group were 80.1 days, 79.7 days, and 80.3 days, respectively. Serious adverse events occurred in 2.7% of patients treated with atogepant 60 mg QD and 1.6% of patients treated with atogepant 30 mg BID, compared to 1.2% of patients with placebo.
Table 11 presents the number and percentage of participants with post-baseline hepatic-related laboratory parameter values of clinical interest. There were five participants who had post-baseline ALT or AST elevations (≥3*ULN), with 1/254 (0.4%), 2/255 (0.8%), and 2/257 (0.8%) in the placebo, atogepant 30 mg BID, and atogepant 60 mg QD groups, respectively. All cases in the atogepant dose groups were adjudicated as unlikely to be related to study drug. No participants met potential Hy's law criteria.

[1] = 30 mg BID, safety population (N = 257)
[2] = 60 mg QD, safety population (N = 261)

## C[C@@H]1[C@H](c2c(F)ccc(F)c2F)C[C@H](NC(=O)c2cnc3c(c2)C[C@@]2(C3)C(=O)Nc3ncccc32)C(=O)N1CC(F)(F)F [Atogepant, (S)—N—((3S,5S,6R)-6-methyl-2-oxo-1-(2,2,2-trifluoroethyl)-5-(2,3,6-trifluorophenyl)piperidin-3-yl)-2′-oxo-1′,2′,5,7-tetrahydrospiro[cyclopenta[b]pyridine-6,3′-pyrrolo[2,3-b]pyridine]-3-carboxamide]
[1]
  Deaths: 0 n (%)
  TEAE leading to treatment discontinuation: 13 (5.1) n (%)
  TEAEs, participants: 145 (56.4) n (%)
  TESAE Anal abscess: 1 (0.4) n (%)
  TESAE Benign ovarian tumour: 1 (0.4) n (%)
  TESAE COVID-19: 0 n (%)
  TESAE COVID-19 pneumonia: 1 (0.4) n (%)
  TESAE Cholelithiasis: 0 n (%)
  TESAE Epicondylitis: 0 n (%)
  TESAE Fall: 0 n (%)
  TESAE Hip fracture: 0 n (%)
  TESAE Nasal septum deviation: 0 n (%)
  TESAE Plasma cell myeloma: 0 n (%)
[2]
  Deaths: 0 n (%)
  TESAE COVID-19: 1 (0.4) n (%)
  TESAE COVID-19 pneumonia: 0 n (%)
In vivo
  serious adverse events considered related to study treatment by the investigator: None
